The results in this text go back to ChEMBL document CHEMBL1129533, “Thrombus imaging using technetium-99m-labeled high-potency GPIIb/IIIa receptor antagonists. Chemistry and initial biological studies” (J Med Chem, 1996).

One test is filed under the species Homo sapiens. Kind of test: Inhibition of ADP-induced platelet aggregation in human platelet rich citreated plasma in presence of 10-20 uM ADP. The class given is functional.
The species entered for test [1] is Canis familiaris. Kind of test: Percent injected dose in the thrombus was determined by canine thrombosis model. The class given is functional, organism-based. The conditions noted are these: Canis lupus familiaris.
The species entered for test [2] is Canis familiaris. In words: Percent injected dose in the blood was determined by canine thrombosis model. The class given is functional, organism-based. The conditions noted are these: Canis lupus familiaris.
Test [3] can be described thus: Thrombus to blood ratio was determined by canine thrombosis model. The class given is functional.
Test [4] is described as follows: Thrombus to muscle ratio was determined by canine thrombosis model. The class given is functional, Muscle tissue.

As usually defined, the IC50 is the midpoint of a concentration-inhibition curve.

SMILES strings stand for the structures. Where a SMILES comes first, the peptide text is derived from it. Bridges are numbered along the chain shown (N, C = ends). [ ]: non-standard residue; d: D form. The star is where a group is joined. Propyl(3-NH2) = NCCC*; Acm = CC(=O)NC*

On to `NCCCC[C@H](NC(=O)[C@@H]1CSCC(=O)N[C@H](Cc2ccc(O)cc2)C(=O)N[C@@H](CSCCCN)C(=O)NCC(=O)N[C@@H](CC(=O)O)C(=O)N1)C(=O)NCC(=O)N[C@@H](CS)C(=O)NCC(=O)N[C@@H](CS)C(=O)NCC(=O)NCC(=O)N[C@@H](CSC1CC(=O)[N+]2(COC2)C1=O)C(N)=O` (some centres not stated), for which, in the test filed under Homo sapiens, the IC50 was determined as 40 nM. Same read-out and setting: the same measure for `N=C(N)c1ccc(C[C@H]2NC(=O)[C@H](Cc3ccc(O)cc3)NC(=O)CSC[C@H](C(=O)N[C@@H](CCCCN)C(=O)NCC(=O)N[C@@H](CSCC(=O)CC(=O)N[C@@H](CCCCN)C(=O)N[C@@H](CCCCN)C(=O)NCC(=O)N[C@@H](CS)C(=O)O)C(=O)NCC(=O)NCC(=O)[C@@H]3CSC45SCC(NC(=O)CNC(=O)[C@H](CSCC(=O)CC(=O)N[C@@H](CCCCN)C(=O)N[C@@H](CCCCN)C(=O)NCC(=O)N[C@@H](CS)C(=O)O)NC(=O)CNC(=O)[C@H](CCCCN)NC(=O)[C@H]6CSCC(=O)N[C@@H](Cc7ccc(O)cc7)C(=O)N[C@H](Cc7ccc(C(=N)N)cc7)C(=O)NCC(=O)N[C@H](CC(=O)O)C(=O)N6)C(=O)N4CC(=O)N35)NC(=O)[C@@H](CC(=O)O)NC(=O)CNC2=O)cc1` (some centres not stated): 40 nM; for `CC(=O)NCSC[C@H](NC(=O)CNC(=O)CNC(=O)[C@@H]1CSCC(=O)N[C@H](Cc2ccc(O)cc2)C(=O)N[C@@H](CSCCCN)C(=O)NCC(=O)N[C@@H](CC(=O)O)C(=O)N1)C(=O)NCC(=O)N[C@@H](CSCNC(C)=O)C(=O)NCC(=O)NCC(=O)N[C@@H](CSCC(=O)CC(=O)N[C@@H](CCCCN)C(=O)N[C@@H](CCCCN)C(=O)NCC(=O)N[C@@H](CS)C(=O)O)C(N)=O`: 110 nM; for `C[C@H](NC(=O)[C@H](CS)NC(=O)CNC(=O)[C@H](CCCCN)NC(=O)[C@H](CCCCN)NC(=O)CNC(=O)CNC(=O)[C@H](CCCCN)NC(=O)CNC(=O)CNC(=O)[C@H](CCCCN)NC(=O)[C@@H]1CSCC(=O)N[C@H](Cc2ccc(O)cc2)C(=O)N[C@@H](CSCCCN)C(=O)NCC(=O)N[C@@H](CC(=O)O)C(=O)N1)C(N)=O`: 80 nM. `CC(=O)NCSC[C@H](NC(=O)CNC(=O)CNC(=O)[C@H]1CSCC(=O)N[C@@H](Cc2ccc(O)cc2)C(=O)N[C@H](CSCCCN)C(=O)NCC(=O)N[C@H](CC(=O)O)C(=O)N1)C(=O)NCC(=O)N[C@@H](CSCNC(C)=O)C(=O)NCC(=O)NCC(=O)N[C@@H](CSCC(=O)CC(=O)N[C@@H](CCCCN)C(=O)N[C@@H](CCCCN)C(=O)NCC(=O)N[C@@H](CS)C(=O)O)C(=O)NCC(=O)[C@@H]1CSC23SCC(NC(=O)[C@H](CSCC(=O)CC(=O)N[C@@H](CCCCN)C(=O)N[C@@H](CCCCN)C(=O)NCC(=O)N[C@@H](CS)C(=O)O)NC(=O)CNC(=O)CNC(=O)[C@H](CSCNC(C)=O)NC(=O)CNC(=O)[C@H](CSCNC(C)=O)NC(=O)CNC(=O)CNC(=O)[C@H]4CSCC(=O)N[C@@H](Cc5ccc(O)cc5)C(=O)N[C@H](CSCCCN)C(=O)NCC(=O)N[C@H](CC(=O)O)C(=O)N4)C(=O)N2CC(=O)N13` (some centres not stated): the IC50 in the test filed under Homo sapiens amounted to 90 nM.

Regarding `N=C(N)c1ccc(C[C@@H]2NC(=O)[C@@H](Cc3ccc(O)cc3)NC(=O)CSC[C@@H](C(=O)N[C@@H](CCCCN)C(=O)NCC(=O)N[C@@H](CS)C(=O)NCC(N)=O)NC(=O)[C@H](CC(=O)O)NC(=O)CNC2=O)cc1`, in the test listed under Homo sapiens, the IC50 was 80 nM.

On to `CC(=O)NCSC[C@H](NC(=O)CNC(=O)CNC(=O)[C@@H]1CSCC(=O)N[C@H](Cc2ccc(O)cc2)C(=O)N[C@@H](CSCCCN)C(=O)NCC(=O)N[C@@H](CC(=O)O)C(=O)N1)C(=O)NCC(=O)N[C@@H](CSCNC(C)=O)C(=O)NCC(=O)NCC(=O)N[C@@H](CSC1CC(=O)[N+]2(CCCNCCC2)C1=O)C(N)=O` (some centres not stated), for which the IC50 in the test filed under Homo sapiens amounted to 40 nM. For the compound `CC(=O)NCSC[C@H](NC(=O)CNC(=O)[C@H](CSCNC(C)=O)NC(=O)CNC(=O)[C@H](CCCCN)NC(=O)[C@@H]1CSCC(=O)N[C@H](Cc2ccc(O)cc2)C(=O)N[C@@H](CSCCCN)C(=O)NCC(=O)N[C@@H](CC(=O)O)C(=O)N1)C(N)=O`, the IC50 in the test listed under Homo sapiens was found to be 160 nM. Take `CC(=O)NCSC[C@H](NC(=O)CNC(=O)CNC(=O)[C@@H]1CSCC(=O)N[C@H](Cc2ccc(O)cc2)C(=O)N[C@@H](CSCCCN)C(=O)NCC(=O)N[C@@H](CC(=O)O)C(=O)N1)C(=O)NCC(=O)N[C@@H](CSCNC(C)=O)C(=O)NCC(=O)NCC(=O)N[C@@H](CSC1CC(=O)[N+]2(CCCCCC2)C1=O)C(N)=O` (some centres not stated): the IC50 in the test listed under Homo sapiens was 140 nM. As to `CC(=O)NCSC[C@H](NC(=O)CNC(=O)CNC(=O)[C@@H]1CSCC(=O)N[C@H](Cc2ccc(O)cc2)C(=O)N[C@@H](CSCCCN)C(=O)NCC(=O)N[C@@H](CC(=O)O)C(=O)N1)C(=O)NCC(=O)N[C@@H](CSCNC(C)=O)C(=O)NCC(=O)NCC(=O)N[C@@H](CSC1CCNC(=O)CNCCNC(=O)CNCCNC(=O)C1)C(N)=O` (some centres not stated), the IC50 in the test filed under Homo sapiens worked out at 30 nM. Still for that read-out and setting: the value for `N=C(N)c1ccc(C[C@@H]2NC(=O)[C@@H](Cc3ccc(O)cc3)NC(=O)CSC[C@@H](C(=O)N[C@@H](CCCCN)C(=O)NCC(=O)N[C@@H](CSCC(=O)CC(=O)N[C@@H](CCCCN)C(=O)N[C@@H](CCCCN)C(=O)NCC(=O)N[C@@H](CS)C(=O)O)C(=O)NCC(N)=O)NC(=O)[C@H](CC(=O)O)NC(=O)CNC2=O)cc1` [listing 1 of 2 here] was 30 nM; that for `CC(=O)NCSC[C@H](NC(=O)CNC(=O)[C@H](CSCNC(C)=O)NC(=O)CNC(=O)CNC(=O)CNC(=O)[C@@H]1CSCC(=O)N[C@H](Cc2ccc(O)cc2)C(=O)N[C@@H](CCCN=C(N)N)C(=O)NCC(=O)N[C@@H](CC(=O)O)C(=O)N1)C(N)=O` was 1400 nM; that for `CC(=O)NCSC[C@H](NC(=O)CNC(=O)[C@H](CSCNC(C)=O)NC(=O)CNC(=O)CNC(=O)CNC(=O)[C@@H]1CSCC(=O)N[C@H](Cc2ccc(O)cc2)C(=O)N[C@@H](CSCCCN)C(=O)NCC(=O)N[C@@H](CC(=O)O)C(=O)N1)C(N)=O` ({CH2CO}-[dY]C(Propyl(3-NH2))GDCGGGC(Acm)GC(Acm)-NH2; thioether N-5) was 300 nM. Still for that read-out and setting: the value for `CC(=O)NCSC[C@H](NC(=O)CNC(=O)CNC(=O)[C@@H]1CSCC(=O)N[C@H](Cc2ccc(O)cc2)C(=O)N[C@@H](CSCCCN)C(=O)NCC(=O)N[C@@H](CC(=O)O)C(=O)N1)C(=O)NCC(=O)N[C@@H](CSCNC(C)=O)C(=O)NCC(=O)NCC(=O)N[C@@H](CSCC(=O)CC(=O)N[C@@H](CCCCN)C(=O)N[C@@H](CCCCN)C(=O)N[C@@H](CCCCN)C(=O)N[C@@H](CCCCN)C(=O)NCC(=O)N[C@@H](CS)C(=O)O)C(N)=O` was 30 nM. As to `NCCCC[C@H](NC(=O)CNC(=O)CNC(=O)[C@@H]1CSCC(=O)N[C@H](Cc2ccc(O)cc2)C(=O)N[C@@H](CSCCCN)C(=O)NCC(=O)N[C@@H](CC(=O)O)C(=O)N1)C(=O)NCC(=O)N[C@@H](CCCCN)C(=O)NCC(=O)N[C@@H](CCCCN)C(=O)N[C@@H](CCCCN)C(=O)NCC(=O)N[C@@H](CS)C(=O)NCC(N)=O`, the IC50 in the test filed under Homo sapiens is 110 nM. On the same count and under the same terms, the same measure for `CC(=O)NCSC[C@H](NC(=O)CNC(=O)[C@H](CSCNC(C)=O)NC(=O)CNC(=O)CNC(=O)[C@@H]1CSCC(=O)N[C@H](Cc2ccc(O)cc2)C(=O)N[C@@H](CCCN=C(N)N)C(=O)NCC(=O)N[C@@H](CC(=O)O)C(=O)N1)C(N)=O`: 1300 nM.

Take `N=C(N)c1ccc(C[C@H]2NC(=O)[C@H](Cc3ccc(O)cc3)NC(=O)CSC[C@H](C(=O)N[C@@H](CCCCN)C(=O)NCC(=O)N[C@@H](CSCC(=O)CC(=O)N[C@@H](CCCCN)C(=O)N[C@@H](CCCCN)C(=O)NCC(=O)N[C@@H](CS)C(=O)O)C(=O)NCC(N)=O)NC(=O)[C@@H](CC(=O)O)NC(=O)CNC2=O)cc1`: the ID/g in the test listed under Canis familiaris [1] amounted to 0.017%; in the test listed under Canis familiaris [2], 0.0025%. The Ratio in test [3] amounted to 7.2. Turning to `NCCCC[C@H](NC(=O)[C@@H]1CSCC(=O)N[C@H](Cc2ccc(O)cc2)C(=O)N[C@@H](CSCCCN)C(=O)NCC(=O)N[C@@H](CC(=O)O)C(=O)N1)C(=O)N[C@@H](CS)C(=O)NCC(N)=O`, in the test filed under Homo sapiens, the half-maximal inhibitory concentration (IC50) worked out at 140 nM. Regarding `N=C(N)c1ccc(C[C@@H]2NC(=O)[C@@H](Cc3ccc(O)cc3)NC(=O)CSC[C@@H](C(=O)NCC(=O)NCC(=O)N[C@@H](CS)C(=O)NCC(=O)N[C@@H](CS)C(=O)NCC(=O)NCC(=O)N[C@@H](CSCC(=O)CC(=O)N[C@@H](CCCCN)C(=O)N[C@@H](CCCCN)C(=O)NCC(=O)N[C@@H](CS)C(=O)O)C(N)=O)NC(=O)[C@H](CC(=O)O)NC(=O)CNC2=O)cc1`, the IC50 in the test listed under Homo sapiens stood at 50 nM. For `N=C(N)c1ccc(C[C@@H]2NC(=O)[C@@H](Cc3ccc(O)cc3)NC(=O)CSC[C@@H](C(=O)N[C@@H](CCCCN)C(=O)NCC(=O)N[C@@H](CSCC(=O)CC(=O)N[C@@H](CCCCN)C(=O)N[C@@H](CCCCN)C(=O)NCC(=O)N[C@@H](CS)C(=O)O)C(=O)NCC(N)=O)NC(=O)[C@H](CC(=O)O)NC(=O)CNC2=O)cc1` [listing 2 of 2 here], the Ratio in test [4] worked out at 41.
